Test results published in patent US6114310A, “Efflux pump inhibitors” (priority 1998, dated 2000).

Test system: Pseudomonas aeruginosa PAM1001
Experiment: microbe, parasite or virus in culture
Assay type: cell-based
Outline: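 Checkerboard broth microdilution (NCCLS) with the efflux pump inhibitor and levofloxacin, each diluted along one axis of the plate, in Mueller Hinton Broth. Inoculum 5×10^5 CFU/ml from early-log culture; incubation 20 h at 35° C. Growth read at 650 nm and visually.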

[1] = Table 1, EPI Conc. μg/ml (number not given; column between 10 and 40 μg/ml)
[2] = Table 2, EPI Conc. μg/ml (number not given; column between 10 and 40 μg/ml)
[3] = Table 3, EPI Conc. μg/ml (number not given; column between 10 and 40 μg/ml)
[4] = Table 4, EPI Conc. μg/ml (number not given; column between 10 and 40 μg/ml)

Measured: Levofloxacin MIC Against P. aeruginosa PAM1001 in Presence of Efflux Pump Inhibitor (EPI), Minimum Inhibitory Concentration

D-Lysyl-β-N-(Ethylthioethyl)alanine 2-Naphthylamide Trifluoroacetate [Example 26]
0.03 µg/mL: [3] | Table 4, EPI Conc. 40 μg/ml
0.015 µg/mL: Table 3, EPI Conc. 10 μg/ml
2 µg/mL: Table 2, EPI Conc. 5 μg/ml
0.25 µg/mL: Table 4, EPI Conc. 10 μg/ml
4 µg/mL: Table 1, EPI Conc. 0 μg/ml | Table 1, EPI Conc. 0.625 μg/ml | Table 2, EPI Conc. 0 μg/ml | Table 2, EPI Conc. 0.625 μg/ml | Table 2, EPI Conc. […] | Table 3, EPI Conc. 0 μg/ml | Table 3, EPI Conc. 0.625 μg/ml | Table 4, EPI Conc. 0 μg/ml | Table 4, EPI Conc. 0.625 μg/ml | Table 4, EPI Conc. […]
1 µg/mL: Table 1, EPI Conc. 5 μg/ml | Table 4, EPI Conc. 5 μg/ml
0.125 µg/mL: Table 1, EPI Conc. 10 μg/ml | [1] | Table 2, EPI Conc. 10 μg/ml | [2] | [4]
0.06 µg/mL: Table 1, EPI Conc. 40 μg/ml | Table 2, EPI Conc. 40 μg/ml | Table 3, EPI Conc. 5 μg/ml

D-Ornithyl-D-phenylalanine quinoline-3-amide [Compound 7 (Table 2)]
0.03 µg/mL: [3] | Table 4, EPI Conc. 10 μg/ml | Table 4, EPI Conc. 40 μg/ml | [4]
0.06 µg/mL: Table 2, EPI Conc. 10 μg/ml | Table 2, EPI Conc. 40 μg/ml | [2] | Table 4, EPI Conc. 5 μg/ml
2 µg/mL: Table 1, EPI Conc. 10 μg/ml
0.015 µg/mL: Table 3, EPI Conc. 5 μg/ml | Table 3, EPI Conc. 10 μg/ml
4 µg/mL: Table 1, EPI Conc. 0 μg/ml | Table 1, EPI Conc. 0.625 μg/ml | Table 1, EPI Conc. 5 μg/ml | Table 1, EPI Conc. […] | Table 2, EPI Conc. 0 μg/ml | Table 2, EPI Conc. 0.625 μg/ml | Table 3, EPI Conc. 0 μg/ml | Table 3, EPI Conc. 0.625 μg/ml | Table 4, EPI Conc. 0 μg/ml | Table 4, EPI Conc. 0.625 μg/ml
1 µg/mL: [1]
0.25 µg/mL: Table 2, EPI Conc. 5 μg/ml
0.50 µg/mL: Table 1, EPI Conc. 40 μg/ml
